Ten compounds from ChEMBL document CHEMBL1201862, “PubChem BioAssay data set” (2004) can be followed below.

Broadly, the GI50 is the concentration at which growth is held to half of that of the control.

Structures can show the parent of a compound that is named as a salt.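 Growth conditions: 96-well plates. Treatment: test compound, 48 hours, 5 concentrations. Analysis: linear interpolation between bracketing concentrations; unreached endpoints set to highest concentration. Abbreviation: GI50, concentration required for 50% inhibition of growth.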 Activity calls are given as the source filed them. Cut-off read from the data, not from the text of the source: active = GI50 up to about 1.1 µM and inactive = higher.

Among the test systems are Hs-578T; OVCAR-4; NCI-H23; BT-549; SNB-19; SF-295; NCI-H460; MDA-MB-231; SK-MEL-5; CAKI-1; DU-145; PC-3; OVCAR-3; SR; IGROV-1; HCT-116; SK-OV-3; UACC-62; LOX IMVI; SW-620.
Holding throughout (test): DTP human tumour cell line panel, 48 h

As to `Cc1cnc2c(c1)C(=O)C1=C(C2=O)C2OC(=O)CC2OC1(C)C` (stereo not given), the GI50 with Hs-578T was 0.301 µM (active); with OVCAR-4, 0.159 µM (active); in the test on NCI-H23, 0.321 µM (active); in the test on BT-549, 0.185 µM (active); in the test on SNB-19, 1.16 µM (inactive); with SF-295 it was 1.25 µM (inactive). The concentration for 50% growth inhibition (GI50) in the test on NCI-H460 was 0.76 µM (active); in the test with MDA-MB-231, 0.0764 µM (active); in the test on SK-MEL-5, 0.317 µM (active); with CAKI-1 it was 0.12 µM (active); with DU-145, 1.64 µM (inactive); in the test on PC-3 it was 0.16 µM (active). Further, the concentration for 50% growth inhibition (GI50) in the test on OVCAR-3 is < 0.01 µM (active); in the test with SR it was 0.0389 µM (active); with IGROV-1, 0.179 µM (active); with HCT-116, 0.0681 µM (active); with SK-OV-3, 1.35 µM (inactive); with UACC-62, 0.179 µM (active). Moreover, the GI50 is 0.193 µM (active) with LOX IMVI and 0.0782 µM (active) in the test on SW-620.

For `O=C(O)CN(CC(=O)O)Cc1cc(C#Cc2ccc(C#Cc3ccccc3)cc2)cc(CN(CC(=O)O)CC(=O)O)n1`, the GI50 in the test with Hs-578T was 46.8 µM (inactive); in the test with OVCAR-4, 10.2 µM (inactive); in the test on NCI-H23 it was 32.7 µM (inactive); in the test with BT-549, 12.3 µM (inactive); in the test on SNB-19, 5.75 µM (inactive); with SF-295 it was 27.4 µM (inactive). Besides, the GI50 with NCI-H460 was 17.7 µM (inactive); with MDA-MB-231, 7.11 µM (inactive); with SK-MEL-5 it was 27.3 µM (inactive); in the test with CAKI-1 it was 10.6 µM (inactive); in the test on DU-145, 17.3 µM (inactive); in the test on PC-3, 4.12 µM (inactive). Also, the GI50 was 9.02 µM (inactive) in the test on OVCAR-3; 18.2 µM (inactive) in the test on SR; 18.7 µM (inactive) in the test on IGROV-1; 8.87 µM (inactive) in the test on HCT-116; 56 µM (inactive) with SK-OV-3; 12.4 µM (inactive) with UACC-62. In addition, the GI50 is 11.1 µM (inactive) with LOX IMVI and 15.7 µM (inactive) in the test on SW-620.

Regarding `S=C(N/N=C(/c1ccccc1)c1ccccn1)Nc1ccc(Cl)cc1`, the GI50 was 0.873 µM (active) in the test with Hs-578T; 5.06 µM (inactive) with OVCAR-4; 3.15 µM (inactive) in the test on BT-549; 3.02 µM (inactive) with SNB-19; 0.627 µM (active) in the test with SF-295; 0.531 µM (active) with NCI-H460. Also, the GI50 in the test with MDA-MB-231 is < 0.0106 µM (active); in the test with SK-MEL-5, 0.403 µM (active); with CAKI-1, 0.264 µM (active); in the test with DU-145, 1.87 µM (inactive); with PC-3, 0.0476 µM (active); in the test on OVCAR-3, < 0.0316 µM (active). The 50% growth inhibitory concentration (GI50) in the test with SR was < 0.0204 µM (active); in the test on IGROV-1, 0.112 µM (active); with HCT-116, < 0.0162 µM (active); in the test with SK-OV-3, 0.175 µM (active); with UACC-62, 0.59 µM (active); in the test on LOX IMVI it was 0.164 µM (active). For the same compound, the GI50 with SW-620 is 0.0423 µM (active).

On to `COc1ccc2c(c1)CC[C@@H]1C2CC[C@]2(C)C(=O)N(C)C(=O)CC12` (stereo not given in full), for which the GI50 with Hs-578T was 42 µM (inactive); in the test on OVCAR-4, > 100 µM (inactive); in the test with NCI-H23 it was > 100 µM (inactive); in the test with BT-549, > 100 µM (inactive); in the test on SNB-19 it was > 100 µM (inactive); in the test with SF-295, 62.7 µM (inactive). The GI50 in the test on NCI-H460, with MDA-MB-231, in the test with SK-MEL-5, with CAKI-1, in the test on DU-145 and in the test on PC-3 was > 100 µM (inactive) throughout. The GI50 in the test with OVCAR-3 is > 100 µM (inactive); in the test on SR it was 13.9 µM (inactive); with IGROV-1, > 100 µM (inactive); in the test on HCT-116 it was > 100 µM (inactive); in the test with SK-OV-3, > 100 µM (inactive); with UACC-62, > 100 µM (inactive). In the test with SW-620, the GI50 was > 100 µM (inactive).

Regarding `CN1[C@@H]2CC[C@H]1C[C@@H](OC(c1ccccc1)c1ccccc1)C2` [BENZTROPINE MESYLATE], the GI50 with Hs-578T is 13.1 µM (inactive); with OVCAR-4 it was 25.5 µM (inactive); in the test on NCI-H23, 27.3 µM (inactive); in the test on BT-549 it was 19.1 µM (inactive); in the test with SNB-19, 22 µM (inactive); in the test on SF-295 it was 11.4 µM (inactive). Besides, the GI50 was 17.5 µM (inactive) in the test on MDA-MB-231; 15.6 µM (inactive) in the test on SK-MEL-5; 23.6 µM (inactive) in the test on CAKI-1; 26.9 µM (inactive) with DU-145; 16.6 µM (inactive) with PC-3; 15.9 µM (inactive) in the test with OVCAR-3. Also, the GI50 in the test with SR was 19.5 µM (inactive); with IGROV-1 it was 17 µM (inactive); with HCT-116 it was 12.6 µM (inactive); in the test on SK-OV-3, 17.9 µM (inactive); with UACC-62, 16.8 µM (inactive); in the test with LOX IMVI, 16 µM (inactive). In addition, the GI50 in the test with SW-620 was 14.5 µM (inactive).

In the case of `COc1cccc(/N=C/c2cc(OC)c(OC)c(OC)c2)c1`, the GI50 in the test with Hs-578T was > 100 µM (inactive); in the test with OVCAR-4, > 79.6 µM (inactive); with NCI-H23 it was > 100 µM (inactive); in the test with BT-549 it was 72.6 µM (inactive); with SF-295, 69.8 µM (inactive); in the test on NCI-H460, 64.9 µM (inactive). The GI50 is > 100 µM (inactive) in the test on MDA-MB-231; 16.8 µM (inactive) with SK-MEL-5; > 100 µM (inactive) with CAKI-1; > 100 µM (inactive) in the test with DU-145; > 100 µM (inactive) in the test with PC-3; 1 µM (active) in the test with OVCAR-3. The GI50 in the test on SR is > 23.1 µM (inactive); in the test with IGROV-1, > 100 µM (inactive); with HCT-116, > 100 µM (inactive); in the test with SK-OV-3, > 100 µM (inactive); in the test with UACC-62, 1.75 µM (inactive); in the test on LOX IMVI, > 37.2 µM (inactive). The GI50 with SW-620 is > 100 µM (inactive).

In the case of `O=c1oc2ccccc2cc1-c1nc2ccccc2s1`, the GI50 in the test with Hs-578T is 6.55 µM (inactive); with OVCAR-4, 11.6 µM (inactive); in the test with NCI-H23, 15.6 µM (inactive); with BT-549, 17.2 µM (inactive); in the test with SF-295, 8.57 µM (inactive); with NCI-H460, 7.45 µM (inactive). Also, the GI50 in the test on MDA-MB-231 was 12 µM (inactive); in the test with SK-MEL-5, 19 µM (inactive); in the test on CAKI-1 it was 4.92 µM (inactive); in the test with DU-145, 14.2 µM (inactive); in the test on PC-3, 17.2 µM (inactive); in the test on OVCAR-3 it was 6.4 µM (inactive). The GI50 is 0.491 µM (active) in the test on SR; 3.33 µM (inactive) with IGROV-1; 5.08 µM (inactive) in the test on HCT-116; 10.1 µM (inactive) with SK-OV-3; 14.6 µM (inactive) in the test with UACC-62; 10.1 µM (inactive) in the test with LOX IMVI. The GI50 with SW-620 was 14.3 µM (inactive).

Regarding `CC(=N\N=C\c1ccccn1)/C(C)=N/N=C(C)/C(C)=N/N=C/c1ccccn1`, the GI50 in the test with Hs-578T, in the test on OVCAR-4, in the test with NCI-H23, in the test with BT-549, with SNB-19 and in the test with SF-295 was > 100 µM (inactive) throughout. Further, the GI50 in the test on NCI-H460, in the test with MDA-MB-231, with SK-MEL-5, in the test on CAKI-1, with DU-145 and with PC-3 was > 100 µM (inactive) in each case. The GI50 with OVCAR-3, with SR, in the test with IGROV-1, in the test on HCT-116, in the test with SK-OV-3 and with LOX IMVI was > 100 µM (inactive) in each case. Also, the GI50 in the test on SW-620 is > 100 µM (inactive).

For the compound `C[C@]12CC[C@H](O)CC1=CC[C@@H]1C2CC[C@]2(C)c3n[nH]nc3CC12` (stereo not given in full), the GI50 was 38.6 µM (inactive) in the test on Hs-578T; > 100 µM (inactive) in the test with OVCAR-4; > 100 µM (inactive) in the test on NCI-H23; > 100 µM (inactive) in the test with BT-549; > 100 µM (inactive) in the test with SNB-19; > 100 µM (inactive) in the test on SF-295. Besides, the GI50 in the test with NCI-H460, in the test with MDA-MB-231, with SK-MEL-5, in the test with CAKI-1, in the test on DU-145 and with PC-3 was > 100 µM (inactive) each time. The GI50 is > 100 µM (inactive) with OVCAR-3; 25.9 µM (inactive) in the test on SR; > 100 µM (inactive) in the test with IGROV-1; > 100 µM (inactive) with HCT-116; > 100 µM (inactive) in the test with SK-OV-3; 96.6 µM (inactive) with UACC-62. For the same compound, in the test on SW-620, the GI50 was > 100 µM (inactive).

Consider `CC1(C)N=C2C(=O)c3c([nH]c4ccccc34)[C@]3(C)CCC1CC23` (stereo not given in full), for which the GI50 with Hs-578T, in the test on OVCAR-4, in the test on NCI-H23, in the test on BT-549, in the test with SF-295 and in the test with NCI-H460 was > 6.25 µM (inactive) in each case. For the same compound, the GI50 with MDA-MB-231, in the test on SK-MEL-5, in the test with CAKI-1, in the test on DU-145, with PC-3 and in the test on OVCAR-3 was > 6.25 µM (inactive) in each case. Also, the GI50 with SR, with IGROV-1, in the test with HCT-116, in the test on LOX IMVI and with SW-620 was > 6.25 µM (inactive) each time.
